Measurements reported in patent JPH01254654A, “スルホン酸の誘導体及びその塩” (Dainippon Pharmaceutical Co Ltd, priority 1988, dated 1989).

Assays:
[1] = intracerebroventricular or parenteral administration; cited from earlier work
[2] = Analgesic action on oral administration (mean writhing number; method of JP 62-270555); type: in vivo; conditions: 200mg/kg

SMILES: O=C(O)CNC(=O)C(CS)Cc1ccccc1 (racemic) [チオルファン, ((It、L)−2−メルカプトメチル−3−フェニルプロピオニル〕グリシン]
- analgesic action [1]: 鎮痛作用を有する

SMILES: CC(=O)SCC(CC1CN(Cc2ccccc2)CCO1)C(=O)Nc1ccc(S(=O)(=O)[O-])cc1.[Na+] (centres unmarked) [実施例1]
- inhibition rate (analgesic action; (A-B) x 100/A, A: mean writhing number of control group, B: that of test substance group) [2]: 61.6 χ
